Experimental data from patent US9353092B2, “Synthesis and use of croconaine compounds” (University of Notre Dame du Lac, priority 2013, dated 2016).
One block for each molecule: values may come before it.

Assays:
Type in all cases: physicochemical
[1] = Absorbance of solutions in 4:1 MeOH/H2O; details: 780 nm
[2] = Photobleaching / photostability under near-infrared laser irradiation; details: 4:1 MeOH/H2O; for Heating effect during extended near-infrared irradiation: 780 nm, 250 mW, 15 minute, 1.67 μg/mL croconaine 1, 2.00 μg/mL ICG, FIG. 13; for Change in absorbance after laser irradiation: FIGS. 14 and 15
Procedure: These experiments were conducted in 4:1 MeOH/H2O, with 1.67 μg/mL of croconaine 1 and 2.00 μg/mL of ICG respectively. This difference in compound photobleaching was confirmed with studies that looked at changes in the compound absorption signal.

[3] = Laser photothermal heating of a solution (temperature change by thermocouple); details: for ΔT (temperature change during laser irradiation): 780 nm
Source text: This example describes a method of using compound 1 to increase the temperature of a solution. […] An Omega hypodermic thermocouple (HYPO-33-1-T-G-60-SMPW-M) was placed in the solution and the temperature measured using the associated USB converter. The Ti:Sapphire laser beam was aligned to pass through the solution (above the stirrer and avoiding close contact with the thermocouple) in an identical manner in every experiment. The laser wavelength was set at 780 and the power controlled to be 250 mW during all of the experiments, with a beam diameter of 0.3 cm.
[…] An Omega hypodermic thermocouple (HYPO-33-1-T-G-60-SMPW-M) was placed in the solution and the temperature measured using the associated USB converter. The Ti:Sapphire laser beam was aligned to pass through the solution (above the stirrer and avoiding close contact with the thermocouple) in an identical manner in every experiment. The laser wavelength was set at 780 or 808 nm and the power controlled to be 250 mW during all of the experiments, with a beam diameter of 0.3 cm.

[4] = 810 nm, 900 s, 260 mW, 0.005 mg/mL

A (absorbance value) ([1]; 0.10 μg/mL): 0.04 | A (absorbance value) ([1]; 0.25 μg/mL): 0.11 | A (absorbance value) ([1]; 0.50 μg/mL): 0.22 | A (absorbance value) ([1]; 1.00 μg/mL): 0.46 | A (absorbance value) ([1]; 1.67 μg/mL): 0.73 | A (absorbance value) ([1]; 2.50 μg/mL): 1.13 | A (absorbance value) ([1]; 5.00 μg/mL): 2.24 | A (absorbance value) ([1]; 50.0 μg/mL, estimated): ~22.4 (est) | Concentration dependence of absorbance ([1]; FIGS. 8 and 9): obeys the Beer-Lambert Law | Heating effect during extended near-infrared irradiation [2]: no heating effect loss | Change in absorbance after laser irradiation [2, 4]: no change
SMILES: C#CCOCCN(CC)c1ccc(C2=C([O-])/C(=C3C=C/C(=[N+](/CC)CCOCC#C)S\3)C(=O)C2=O)s1 [Compound 1]
ΔT (temperature change during laser irradiation) ([3]; 0.10 μg/mL, 4:1 MeOH/H2O, 250 mW): 0.1 °C | ΔT (temperature change during laser irradiation) ([3]; 0.25 μg/mL, 4:1 MeOH/H2O, 250 mW): 2.0 °C | ΔT (temperature change during laser irradiation) ([3]; 0.50 μg/mL, 4:1 MeOH/H2O, 250 mW): 3.4 °C | ΔT (temperature change during laser irradiation) ([3]; 1.00 μg/mL, 4:1 MeOH/H2O, 250 mW): 7.2 °C | ΔT (temperature change during laser irradiation) ([3]; 1.67 μg/mL, 4:1 MeOH/H2O, 250 mW): 9.8 °C | ΔT (temperature change during laser irradiation) ([3]; 2.50 μg/mL, 4:1 MeOH/H2O, 250 mW): 10.4 °C | ΔT (temperature change during laser irradiation) ([3]; 5.00 μg/mL, 4:1 MeOH/H2O, 250 mW): 11.0 °C | ΔT (temperature change during laser irradiation) ([3]; 50.0 μg/mL, 4:1 MeOH/H2O, 250 mW): 11.3 °C | Heating on laser irradiation at different wavelengths ([3]; 4:1 MeOH/H2O, 0.05 mg/mL for laser experiments, FIG. 12): proportional to the amount of light absorbed | Dependence of heating on absorbance ([3]; 780 nm laser light, Table 1, FIGS. 10 and 11): linear with absorbance from about A=0 until about A=1

SMILES: C#CCOCCN(Cc1ccccc1)c1ccc(C2=C([O-])/C(=C3C=C/C(=[N+](\CCOCC#C)Cc4ccccc4)S\3)C(=O)C2=O)s1 [Compound 2]
Ability to increase the temperature of a solution ([3]; 2.0 or 50.0 μg/mL, 4:1 MeOH/H2O, 780 or 808 nm, 250 mW): same ability as compound 1

Decrease in the absorbance after laser irradiation ([2]; 810 nm, 900 s, 260 mW, 0.005 mg/mL, FIG. 15): ~50% | Change in absorbance after laser irradiation [2, 4]: drop
SMILES: CC1(C)C(/C=C/C=C/C=C/C=C2\N(CCCCS(=O)(=O)O)c3ccc4ccccc4c3C2(C)C)=[N+](CCCCS(=O)(=O)[O-])c2ccc3ccccc3c21 [ICG, indocyanine green]
Heating effect during extended near-infrared irradiation [2]: loss of heating effect due to photobleaching
